From US9921225B2, “Phenyl glyoxal probes” (The Scripps Research Institute, priority 2012, dated 2018)
Values joined by “and” are separate entries in the source; they are usually repeats but may differ in a detail not shown here. Equal entries are not always repeated.

Key:
autodeiminated PAD4 [1] = target: T1, autodeiminated PAD4 (Homo sapiens, UniProt Q9UM07); test: Biotin-PG limit of detection, streptavidin-HRP blot; details: Example 1; 20% TCA, 0.1 mM Biotin-PG, 37° C., 3 h
Method: Biotin-PG Pulldown and Labeling—It was next set out to determine the utility of the biotin-tagged PG probe, Biotin-PG (FIG. 2), as a tool for labeling, isolating, and enriching citrullinated proteins. As with the Rh-PG probe, the LOD of this probe was first determined with respect to autodeiminated PAD4. For these studies, autodeiminated PAD4, prepared as described above, was diluted into 50 mM HEPES pH 8.0 to final concentrations of 1.6 μM, 0.16 μM, 16 nM, 1.6 nM, and 0.16 nM. These samples were then incubated at 37° C. for 3 h with 20% TCA and 0.1 mM Biotin-PG. Solutions were quenched, cooled on ice for 30 min, and centrifuged at 14,000 rpm for 15 min at 4° C. The supernatant was removed and samples were washed with cold acetone and dried at 100° C. for 5 min. Proteins were resuspended in 25 μL of 50 mM HEPES and boiled with 6×SDS loading dye and various amounts of protein (i.e., 1,000, 100, 10, 1, and 0.1 ng) loaded onto a 12% SDS-PAGE gel. Gel electrophoresis was performed at 200 V for 50 min and proteins were subsequently electrotransferred to nitrocellulose (tris-glycine buffer; 80 V; 70 min) and the membrane blocked with 5% BSA in PBS for 1 h at rt. After washing 2× with PBS (10 min), the blot was treated with streptavidin-HRP (1:20,000) in 5% BSA in PBS for 1 h at rt. […]

[2] = system: DSS induced ulcerative colitis; details: cited from earlier work
[3] = system: serum protein citrullination; test: Rh-PG analysis of murine ulcerative colitis serum samples; type: in vivo, mouse; details: serum of DSS mice treated with Cl-amidine
Method: Rh-PG Analysis of Murine Ulcerative Colitis Serum Samples: Serum samples Cl-amidine efficacy in a mouse model of ulcerative colitis were obtained and analyzed by the Rh-PG method. Briefly, the protein concentration of serum samples was first obtained using a standard Lowry assay. A sample (2 mg/mL; 30 μL) of each serum sample (i.e., 14 total; 7 DSS; 7 DSS+Cl-amidine) was prepared in 50 mM HEPES and treated with 20% TCA and 0.1 mM Rh-PG for 30 min at 37° C. Samples were then quenched with citrulline, cooled, centrifuged, washed, and dried. After resuspending in 50 mM HEPES, samples were separated by SDS-PAGE (12%; 170 V; 50 min) and imaged on a Typhoon Imager (Ex. 532 nm; Em. 580 nm). Images were analyzed using ImageQuant 5.2 and correlation coefficients were determined using Microsoft Excel. These experiments were run in duplicate on different days. Subsequent statistical analysis was done using STATISTICA, utilizing two-tailed, independent student's t-tests to determine significance (i.e., P-value) between diseased and Cl-amidine treated samples. Correlation coefficients were calculated in Microsoft Excel, utilizing a table of critical values of Pearson's r with a degree of freedom value of 12 (n−2) to determine the significance (i.e., P-value) of the correlation between the fluorescence of a particular protein and a disease score.

autodeiminated PAD4 [4] = target: T1, autodeiminated PAD4; test: Rh-PG limit of detection, SDS-PAGE and fluorescent imaging; details: Example 1; 20% TCA, 0.1 mM Rh-PG, 37° C., 3 h; LOD defined as three times the noise
Method: The sensitivity of the probe was analyzed next (FIGS. 5A, 5B). Autodeiminated PAD4, prepared as described above, was diluted into 50 mM HEPES pH 8.0 to final concentrations of 1.6 μM, 0.16 μM, 16 nM, 1.6 nM, and 0.16 nM. To one set of samples was added 0.1 mM Rh-PG, and to a second set, 20% TCA and 0.1 mM Rh-PG. The samples were then incubated at 37° C. for 3 h. To TCA precipitate autodeiminated PAD4, the acidic solutions were cooled on ice for 30 min and then centrifuged at 14,000 rpm for 15 min at 4° C. The supernatant was removed and samples were washed with cold acetone and dried at 100° C. for 5 min. Proteins were resuspended in 25 μL of 50 mM HEPES. Both basic and acidic samples were then boiled with 6×SDS loading dye and various amounts of protein (i.e., 1000, 100, 10, 1, and 0.1 ng) loaded onto a 12% SDS-PAGE gel. Gel electrophoresis was performed at 170 V for 60 min and the gels analyzed on a Typhoon Imager (Ex. 532 nm; Em. 580 nm) (FIGS. 5A, 5B). […]
Rh-PG Limit of Detection: Citrullinated H3 and autodeiminated PAD4, prepared as described above, were diluted into 50 mM HEPES pH 7.6 to final concentrations of (2.2 μM, 0.22 μM, 22 nM, 2.2 nM, and 0.22 nM H3) and (0.16 μM, 16 nM, 1.6 nM, 0.16 nM, and 0.016 nM PAD4). […] Gel electrophoresis was performed at 170 V for 50 min and the gels analyzed on a Typhoon Imager (Ex. 532 nm; Em. 580 nm).

PAD3 = target: T2, PAD3 (Homo sapiens, UniProt Q9ULW8); test: Kinetic characterization of ApoA1 as a PAD substrate using Rh-PG; type: biochemical; details: recombinant huApoA1, Rh-PG readout
T2 sequence (Q9ULW8 1-664): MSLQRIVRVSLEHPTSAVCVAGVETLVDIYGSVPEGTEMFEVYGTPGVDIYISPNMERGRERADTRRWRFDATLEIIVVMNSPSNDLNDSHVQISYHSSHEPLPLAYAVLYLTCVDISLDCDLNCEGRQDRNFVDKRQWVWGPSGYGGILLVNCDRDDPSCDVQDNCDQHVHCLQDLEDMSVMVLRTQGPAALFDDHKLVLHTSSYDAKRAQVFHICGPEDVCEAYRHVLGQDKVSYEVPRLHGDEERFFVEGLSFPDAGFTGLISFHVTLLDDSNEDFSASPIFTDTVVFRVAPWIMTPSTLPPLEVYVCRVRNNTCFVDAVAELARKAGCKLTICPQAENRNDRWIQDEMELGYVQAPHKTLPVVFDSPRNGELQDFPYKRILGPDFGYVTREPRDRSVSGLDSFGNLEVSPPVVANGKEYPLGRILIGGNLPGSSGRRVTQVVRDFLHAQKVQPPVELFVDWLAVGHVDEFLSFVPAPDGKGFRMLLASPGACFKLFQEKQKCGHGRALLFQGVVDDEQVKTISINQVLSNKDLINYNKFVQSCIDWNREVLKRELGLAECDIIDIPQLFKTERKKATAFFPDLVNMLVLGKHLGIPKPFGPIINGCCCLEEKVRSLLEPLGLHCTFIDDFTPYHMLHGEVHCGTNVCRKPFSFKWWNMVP
Method: (§1) To verify that ApoA1 is the modified 25 kDa protein in the UC samples, anti-ApoA1 Western blotting of Biotin-PG pulldown samples was performed (FIG. 24A). […] To test human ApoA1 as a PAD substrate, recombinant huApoA1 was first treated ±PADs 1-4 and then analyzed with the Rh-PG probe (FIG. 24B). […] PADs 2, 3, and 4 also modified ApoA1, albeit to a lesser extent. To further evaluate citrullination of ApoA1, the steady state kinetic parameters were determined using Rh-PG.

PAD2 = PAD2 (Homo sapiens, UniProt Q9Y2J8); test: as above; type: biochemical; details: recombinant huApoA1, Rh-PG readout
Method: as §1

PAD4 = PAD4 (Homo sapiens, UniProt Q9UM07); test: Steady-state kinetic assay of protein citrullination using Rh-PG; type: biochemical; details: recombinant huApoA1, Rh-PG readout
[5] = group average, Group 8 WT, 2% DSS + Cl-Amidine @ 75 mg/kg
[6] = individual mice, Group 8 WT, 2% DSS + Cl-Amidine @ 75 mg/kg

T1 sequence (Q9UM07 whole entry): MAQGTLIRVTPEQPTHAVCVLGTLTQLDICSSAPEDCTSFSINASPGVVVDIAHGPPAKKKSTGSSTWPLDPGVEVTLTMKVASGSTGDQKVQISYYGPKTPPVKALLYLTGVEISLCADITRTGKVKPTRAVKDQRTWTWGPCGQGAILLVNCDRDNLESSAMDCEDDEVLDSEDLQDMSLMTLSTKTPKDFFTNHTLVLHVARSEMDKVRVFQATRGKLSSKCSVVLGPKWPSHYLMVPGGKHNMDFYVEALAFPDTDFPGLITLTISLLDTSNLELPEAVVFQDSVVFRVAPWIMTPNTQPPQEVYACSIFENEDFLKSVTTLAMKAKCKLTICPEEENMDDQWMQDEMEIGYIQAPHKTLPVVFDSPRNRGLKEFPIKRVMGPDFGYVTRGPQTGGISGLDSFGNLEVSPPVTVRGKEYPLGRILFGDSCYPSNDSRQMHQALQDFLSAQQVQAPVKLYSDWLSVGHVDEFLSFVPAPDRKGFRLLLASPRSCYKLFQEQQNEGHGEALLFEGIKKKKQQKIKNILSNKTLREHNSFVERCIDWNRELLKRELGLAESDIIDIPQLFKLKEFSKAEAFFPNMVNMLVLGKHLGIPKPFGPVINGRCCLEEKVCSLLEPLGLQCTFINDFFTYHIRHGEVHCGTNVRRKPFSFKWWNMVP
PAD2, sequence (Q9Y2J8 whole entry, species assumed): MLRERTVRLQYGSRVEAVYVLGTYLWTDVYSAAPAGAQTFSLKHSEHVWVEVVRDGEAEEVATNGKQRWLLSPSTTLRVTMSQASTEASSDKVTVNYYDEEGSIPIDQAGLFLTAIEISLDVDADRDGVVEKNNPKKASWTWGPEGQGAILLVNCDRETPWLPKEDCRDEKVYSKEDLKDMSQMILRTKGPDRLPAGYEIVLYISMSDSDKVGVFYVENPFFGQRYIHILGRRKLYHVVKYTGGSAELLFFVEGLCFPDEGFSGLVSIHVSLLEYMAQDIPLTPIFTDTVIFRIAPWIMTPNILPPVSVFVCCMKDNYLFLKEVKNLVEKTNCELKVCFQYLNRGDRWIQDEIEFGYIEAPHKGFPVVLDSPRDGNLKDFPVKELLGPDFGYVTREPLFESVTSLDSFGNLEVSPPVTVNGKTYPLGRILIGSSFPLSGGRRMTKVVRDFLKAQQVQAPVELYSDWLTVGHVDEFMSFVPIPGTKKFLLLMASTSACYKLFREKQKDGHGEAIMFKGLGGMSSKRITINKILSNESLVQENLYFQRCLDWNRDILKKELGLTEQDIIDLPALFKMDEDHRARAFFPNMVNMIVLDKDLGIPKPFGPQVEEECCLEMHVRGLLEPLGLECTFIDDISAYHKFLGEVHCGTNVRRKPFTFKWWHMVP
PAD4, sequence (Q9UM07 whole entry, species assumed): as the sequence (Q9UM07 whole entry) above

O=CC(=O)c1cccc(NC(=O)CCn2cc(CCCC(=O)NCCNC(=O)CCCC[C@@H]3SC[C@@H]4NC(=O)N[C@@H]43)nn2)c1 [Biotin-PG]
limit of detection of Biotin-PG probe, autodeiminated PAD4 (autodeiminated PAD4 [1]): 100 ng

NC(=O)[C@H](CCCN=C(N)CCl)NC(=O)c1ccccc1 [Cl-amidine]
disease severity ([2]; DSS mouse model of ulcerative colitis, previous study (Chumanevich 2011)): reduces disease severity | Colon Length, Average [2, 5]: 8.1 cm | Inflam. Score, Average [2, 5]: 14.6 | Lym, Average [2, 5]: 8.2 m/mm^3 | WBC, Average [2, 5]: 13.7 m/mm^3 | Weight (end), Average [2, 5]: 23.3 g | Weight Diff., Average [2, 5]: 0.7 g | Colon Length [2, 6]: 7.6 cm (2×) and 8.1 cm and 8.2 cm and 8.6 cm and 8 cm and 8.4 cm | Inflam. Score [2, 6]: 14 (2×) and 24 and 12 (2×) and 10 and 16 | Lym [2, 6]: 5.68 m/mm^3 and 3.87 m/mm^3 and 11.35 m/mm^3 and 9.4 m/mm^3 and 6.87 m/mm^3 and 9.35 m/mm^3 and 10.83 m/mm^3 | WBC [2, 6]: 9.75 m/mm^3 and 9.08 m/mm^3 and 18.14 m/mm^3 and 15.12 m/mm^3 and 11.46 m/mm^3 and 15.91 m/mm^3 and 16.41 m/mm^3 | Weight Diff. [2, 6]: 0.8 g (2×) and 0.15 g and 1.3 g and 0.5 g and 0.7 g and 0.3 g | Weight (end) ([2]; individual mice, Group 8 WT, 2% DSS + Cl-Amidine @ 75 mg/kg, in g): 23.4 and 22.05 and 22.7 and 24.1 and 25 and 22.5 and 23.6 | effect on global citrullination (whole lane) [3]: significantly decreases global citrullination

CC(C(=O)Nc1cccc(C(=O)C=O)c1)n1cc(CNC(=O)c2ccc3c(c2)C2(OC3=O)c3ccc(N(C)C)cc3Oc3cc(N(C)C)ccc32)nn1 (stereo not shown) [Rh-PG, N-(3-Glyoxyl)phenylamino)propionyl)-1H-1,2,3-triazol-4-yl)methyl-5(6)-carboxamidotetramethyl rhodamine hydrate]
limit of detection (LOD) of Rh-PG probe labeling of autodeiminated PAD4 (autodeiminated PAD4 [4]): 1 ng

ApoA1: apolipoprotein-A1, a key component of High Density Lipoprotein; recombinant huApoA1 tested as PAD substrate
substrate quality for PAD3 (PAD3): modest substrate | substrate quality for PAD2 (PAD2): modest substrate | substrate quality for PAD4 (PAD4): modest substrate
